Results reported in the NIST ThermoML archive (doi:10.1016/j.fluid.2017.03.025).
Values joined by “and” are separate entries in the source; they are usually repeats but may differ in a detail not shown here. Equal values may be shown once.

Test: wn = mass fraction of the nth substance listed
Conditions: discharge crucible method; for mass density / viscosity: 101 kPa, Liquid

[Zn] [zinc] + [Ga]
Conditions	mass density	surface tension liquid-gas	viscosity
323 K, w1 = 0.036	6081 kg/m3	722.9 mN/m	1.576 mPa·s
373 K, w1 = 0.036	6049 kg/m3	719.2 mN/m	1.336 mPa·s
423 K, w1 = 0.036	6018 kg/m3	715.6 mN/m	1.139 mPa·s
423 K, w1 = 0.25	6205 kg/m3	733 mN/m	2.596 mPa·s
473 K, w1 = 0.036	5989 kg/m3	712 mN/m	1.018 mPa·s
473 K, w1 = 0.25	6175 kg/m3	728.9 mN/m	2.037 mPa·s
523 K, w1 = 0.036	5956 kg/m3	708.4 mN/m	0.924 mPa·s
523 K, w1 = 0.25	6146 kg/m3	723.5 mN/m	1.733 mPa·s
573 K, w1 = 0.036	5929 kg/m3	704.9 mN/m	0.845 mPa·s
573 K, w1 = 0.25	6115 kg/m3	718.9 mN/m	1.529 mPa·s
573 K, w1 = 0.5	6355 kg/m3	748.5 mN/m	2.861 mPa·s
623 K, w1 = 0.036	5896 kg/m3	701.2 mN/m	0.779 mPa·s
623 K, w1 = 0.25	6079 kg/m3	714.6 mN/m	1.375 mPa·s
623 K, w1 = 0.5	6323 kg/m3	739.8 mN/m	2.394 mPa·s
623 K, w1 = 0.75	6584 kg/m3	773.5 mN/m	3.588 mPa·s
673 K, w1 = 0.036	5866 kg/m3	697.7 mN/m	0.736 mPa·s
673 K, w1 = 0.25	6052 kg/m3	709.7 mN/m	1.261 mPa·s
673 K, w1 = 0.5	6302 kg/m3	733.3 mN/m	2.112 mPa·s
673 K, w1 = 0.75	6557 kg/m3	764.1 mN/m	3.019 mPa·s
673 K, w1 = 0.9	6721 kg/m3	792.3 mN/m	3.809 mPa·s
723 K, w1 = 0.036	5836 kg/m3	693.8 mN/m and 694.3 mN/m	0.709 mPa·s and 0.699 mPa·s
723 K, w1 = 0.25	6024 kg/m3 and 6025 kg/m3	705.2 mN/m and 705.5 mN/m	1.148 mPa·s and 1.159 mPa·s
723 K, w1 = 0.5	6277 kg/m3 and 6276 kg/m3	725.3 mN/m	1.875 mPa·s and 1.871 mPa·s
723 K, w1 = 0.75	6537 kg/m3 and 6536 kg/m3	753.4 mN/m and 754 mN/m	2.625 mPa·s
723 K, w1 = 0.9	6699 kg/m3 and 6700 kg/m3	780.5 mN/m and 780.4 mN/m	3.225 mPa·s and 3.241 mPa·s
723 K, w1 = 1	6831 kg/m3	812.1 mN/m	3.721 mPa·s
773 K, w1 = 0.036	5806 kg/m3	690.8 mN/m	0.662 mPa·s
773 K, w1 = 0.25	5998 kg/m3	700.4 mN/m	1.098 mPa·s
773 K, w1 = 0.5	6249 kg/m3	717.7 mN/m	1.693 mPa·s
773 K, w1 = 0.75	6512 kg/m3	744.6 mN/m	2.323 mPa·s
773 K, w1 = 0.9	6679 kg/m3	768.7 mN/m	2.813 mPa·s
823 K, w1 = 0.9	6657 kg/m3	755.5 mN/m	2.517 mPa·s
